Tests used:
normal-fed mice (Lean) = experiment: Metabolic cage, normal-fed mice (Lean); format: in vivo, mouse; conditions: for respiratory exchange rate / physical activity: 20 mg/kg
Description: Before starting the metabolic cage experiment, the mice were fed in a single cage for 1 week. After a one-week single cage adaptation period, three days before the start of the small molecule compound injection, the mice were injected with 25 μL of DMSO within 2 hours before turning off the lights every afternoon, allowing them to adapt to the injection for 3 days. After 3 days of injection, the acclimated mice were put into the metabolic cage. Starting from the same day, 25 μL of DMSO and HLY72 (20 mg/kg) were injected within 2 hours before turning off the lights for 3 consecutive days.
Next, the effect of HLY72 on the metabolism of mice is studied. We use two methods: (1) the relevant metabolic indexes of the mice are directly measured using the metabolic cage, and (2) the expression of the relevant key metabolic genes is detected. three metabolic parameters are obtained through the metabolic cage experiment: (1) Energy expenditure (EE), energy output is an important aspect of energy balance, under conditions such as restricted diet and fasting, mice will reduce basic metabolism, reduce energy expenditure; (2) respiratory exchange ratio (RER), based on the ratio calculated by CO2 produced and the use of 02, RER of 1 means that carbohydrates is mainly used as energy, RER of 0.7 means that fat is mainly used as fuel; (3) physical activity (Activity).

[1] = system: lipid metabolism related genes; experiment: Expression of lipid metabolism related genes in tissues (RT-PCR); format: in vivo, mouse; conditions: 20 mg/kg 3 consecutive days
Description: Mice fed with normal diet are injected with 20 mg/kg of HLY72 for 3 consecutive days, and the white adipose tissue (A) is taken to detect fat storage, fatty acid synthesis and decomposition-related gene expression. Liver (B) is taken to detect fatty acid transport and oxidative gene expression. Muscle (C) is taken to test the fatty acid transport and oxidative gene expression (14 mice per group).
After the mice were euthanized, the corresponding tissues were immediately peeled off and quickly frozen with liquid nitrogen and stored at −80° C. For the cell sample in the 6-well petri dish, after removing the culture medium, 1 mL of Trizol was added and placed at room temperature for 10 minutes, then transferred to a 1.5 mL EP tube and stored at −80° C. When extracting tissue RNA, 1.5 mL of Trizol was added to the tissue homogenization tube containing steel balls, the tissue was removed from the −80° C. refrigerator and put into the homogenization tube to homogenize and crush. RNA was extracted by phenol-chloroform-isopropanol method. Using the Superscript™III first strand synthesis system (Invitrogen) kit, 1 μg of mRNA was reverse transcribed into cDNA, and random primers were used for reverse transcription. Quantitative SYBR green PCR kit (Takara) kit was used for quantitative PCR reaction. The instrument for PCR reaction was ABI-QuantStudio 6 Realtime PCR instrument.
After injection of HLY72 in mice, the epididymal white adipose tissue, liver and muscle tissue were taken to detect the expression of lipid metabolism related genes. […] The expression of fatty acid transporter gene FAT (CD36), FATP2, FATP5 on the liver cell membrane is increased, the expression of the transporter gene CPT1A for fatty acid entering the mitochondria and the key enzyme gene ACADM of fatty acid β-oxidation are increased (FIG. 15b). At the same time, the expression of muscle cell membrane fatty acid transporter genes FATP1 and FATP4 are increased, and the expression of the transporter gene CPT1B for fatty acid entering the mitochondria and the key enzyme gene ACADM of fatty acid β-oxidation are increased (FIG. 15c). Changes in gene expression in these tissues indicate that liver and muscle tissues have increased the use of fatty acids.

In the case of `C=Cc1cccc2c1N(C)Cc1cc3c(cc1-2)OCO3` [HLY72], the energy expenditure (normal-fed mice (Lean); 20 mg/kg once a day, night (dark) and day (light)) is reported as “significantly reduces”, the respiratory exchange rate (normal-fed mice (Lean); at night) is reported as “significantly reduced” and the physical activity (normal-fed mice (Lean); daytime) is reported as “does not affect”. For the same compound, the respiratory exchange rate (normal-fed mice (Lean); during the day) was “no change”, the physical activity (normal-fed mice (Lean); night) was “decreased” and the “expression of ACADM” value ([1]; liver) was “increased”. The “expression of CPT1A” value ([1]; liver) was “increased”, the “expression of FAT (CD36)” value ([1]; liver) was “increased” and the “expression of FATP2” value ([1]; liver) was “increased”. The “expression of FATP5” value ([1]; liver) was “increased”, the “expression of ACADM” value ([1]; muscle) was “increased” and the “expression of CPT1B” value ([1]; muscle) was “increased”. The “expression of FATP1” value ([1]; muscle) was “increased”, the “expression of FATP4” value ([1]; muscle) was “increased” and the “expression of ATGL (lipolytic gene)” value ([1]; white adipose tissue) was “increase”. The “expression of DGAT (fat storage gene)” value ([1]; white adipose tissue) was “significantly reduced”, the “expression of FAS (fatty acid synthesis gene)” value ([1]; white adipose tissue) was “significantly down-regulated” and the “expression of SCD1 (fatty acid synthesis gene)” value ([1]; white adipose tissue) was “significantly down-regulated”.

Reference: patent US20200385396A1, “Compond for treatment or prevention of obesity or diseases related to obesity, and application thereof” (SHANGHAI INSTITUTES FOR BIOLOGICAL SCIENCES, CHINESE …, priority 2017, published 2020)
